Read-outs that look alike come from different tables or passages of the source.
Key:
[1] = system: Staphylococcus aureus V41; assay: standard agar-dilution assay, MIC; type: cell-based; details: Staphylococcus aureus V41, penicillin resistant strain
Procedure: (§1) The MIC's in Table III were determined by standard agar-dilutionassays. The MIC's in Table IV were obtained using a conventional broth-dilution microtiter test.
^b Penicillinresistant strain

[2] = system: Staphylococcus aureus X1.1; assay: standard agar-dilution assay, MIC; type: cell-based
Procedure: as §1

[3] = system: Streptococcus Group D X66; assay: standard agar-dilution assay, MIC; type: cell-based
Procedure: as §1

[4] = system: Staphylococcus aureus S13E; assay: standard agar-dilution assay, MIC; type: cell-based
Procedure: as §1

[5] = system: Streptococcus pyogenes C203; assay: standard agar-dilution assay, MIC; type: cell-based
Procedure: as §1

[6] = system: Streptococcus pneumoniae Park I; assay: standard agar-dilution assay, MIC; type: cell-based
Procedure: as §1

[7] = system: Staphylococcus epidermidis EPI1; assay: standard agar-dilution assay, MIC; type: cell-based
Procedure: as §1

[8] = system: Staphylococcus epidermidis EPI2; assay: standard agar-dilution assay, MIC; type: cell-based
Procedure: as §1

Streptococcus Group 9960 = assay: standard agar-dilution assay, MIC; type: cell-based
Procedure: as §1

[9] = system: Haemophilus influenzae Holt; assay: standard agar-dilution assay, MIC; type: cell-based; details: ampicillin sensitive strain
Procedure: as §1
^d Ampicillinsensitive strain

[10] = system: Staphylococcus aureus X400; assay: standard agar-dilution assay, MIC; type: cell-based; details: Staphylococcus aureus X400, methicillin resistant strain
Procedure: as §1
^c Methicillinresistant-strain

[11] = system: Haemophilus influenzae R252; assay: standard agar-dilution assay, MIC; type: cell-based; details: Haemophilus influenzae R252, ampicillin resistant strain
Procedure: as §1
^e Ampicillinresistant strain

Streptococcus sp. 80 = assay: conventional broth-dilution microtiter test, MIC; type: cell-based
Procedure: as §1

Mycoplasma synoviae = assay: conventional broth-dilution microtiter test, MIC; type: cell-based
Procedure: as §1

[12] = system: Pasteurella multocida 17E; assay: conventional broth-dilution microtiter test, MIC; type: cell-based; details: bovine isolate
Procedure: as §1

Mycoplasma hyorhinis = assay: conventional broth-dilution microtiter test, MIC; type: cell-based
Procedure: as §1

Staphylococcus aureus = assay: conventional broth-dilution microtiter test, MIC; type: cell-based
Procedure: as §1

[13] = system: Pasteurella multocida 60A; assay: conventional broth-dilution microtiter test, MIC; type: cell-based; details: avian isolate
Procedure: as §1

Mycoplasma gallisepticum = assay: conventional broth-dilution microtiter test, MIC; type: cell-based
Procedure: as §1

[14] = system: Streptococcus pyogenes C203; assay: experimental bacterial infection in mice, ED50; type: in vivo; details: doses given 1 and 5 hours postinfection, read-out: ED50 (effective dose to protect 50% of the test animals)
How it was run: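 Infected mice received two doses of test compound, given 1 and 5 hours postinfection. ED50 is the dose in mg/kg × 2 that protects 50% of animals.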

SMILES	MIC (minimal inhibitory concentration) [1]	MIC (minimal inhibitory concentration) [2]	MIC (minimal inhibitory concentration) [3]	MIC (minimal inhibitory concentration) [4]	MIC (minimal inhibitory concentration) [5]	MIC (minimal inhibitory concentration) [6]	MIC (minimal inhibitory concentration) [7]	MIC (minimal inhibitory concentration) [8]	MIC (minimal inhibitory concentration) (Streptococcus Group 9960)	MIC (minimal inhibitory concentration) [9]	MIC (minimal inhibitory concentration) [10]	MIC (minimal inhibitory concentration) [11]	MIC (minimal inhibitory concentration) (Streptococcus sp. 80)	MIC (minimal inhibitory concentration) (Mycoplasma synoviae)	MIC (minimal inhibitory concentration) [12]	MIC (minimal inhibitory concentration) (Mycoplasma hyorhinis)	MIC (minimal inhibitory concentration) (Staphylococcus aureus)	MIC (minimal inhibitory concentration) [13]	MIC (minimal inhibitory concentration) (Mycoplasma gallisepticum)	ED50 ([14]; C203, mice, oral) [mg/kg]	also measured
CCC1OC(=O)CC(O)C(C)C(OC2OC(C)C(OC3CC(C)(O)C(OC(C)=O)C(C)O3)C(N(C)C)C2O)C(CC=O)CC(C)C(=O)C=CC(C)=CC1COC(C)=O (centres unmarked) [Compound 2, 23,4"-Di-O-Acetyl-DMT]	0.25	0.5	0.5	0.5	0.25	0.125	1	1	0.5	16	1	16	0.39	0.39	6.25	0.78	0.78	12.5	0.097	117	
CCC(=O)OC1C(C)OC(OC2C(C)OC(OC3C(CC=O)CC(C)C(=O)C=CC(C)=CC(C)C(CC)OC(=O)CC(O)C3C)C(O)C2N(C)C)CC1(C)O (centres unmarked) [Compound 24, 4"-O-Propionyl-DMOT]	1	0.5	1	0.5	0.5	0.125	0.5	1	0.5	8	0.5	8	0.39	0.78	6.25	3.12	0.78	12.5	0.097	71	ED50 ([14]; C203, sc, mice, subcutaneous): 22 mg/kg
CCC(=O)OC1CC(=O)OC(CC)C(C)C=C(C)C=CC(=O)C(C)CC(CC=O)C(OC2OC(C)C(OC3CC(C)(O)C(OC(=O)CC)C(C)O3)C(N(C)C)C2O)C1C (centres unmarked) [Compound 25, 3,4"-Di-O-propionyl-DMOT]	1	0.5	1	0.5	0.5	0.25	1	2	1	32	1	16	1.56	0.39	25	1.56	1.56	50	0.195	36	ED50 ([14]; C203, sc, mice, subcutaneous): > 30 mg/kg

Source: patent US4436733A, “4"- And 3-ester derivatives of DMT and DMOT” (Eli Lilly and Company, priority 1982, dated 1984)
